Source: US6403535B1, “Substituted thiazol(in) ylideneamino sulfonylamino (thio)carbonyl-triazolinones” (Bayer Aktiengesellschaft, priority 1998, dated 2002)

Legend:
[1] = system: Amaranthus; experiment: Pre-emergence test/greenhouse; format: in vivo; conditions: 504 h, after three weeks, read-out: degree of damage, Amaranthus; for pest or weed control at 125 g/ha: 125 g of a.i./ha
Method: (§1) To produce a suitable preparation of active compound, 1 part by weight of active compound is mixed with the stated amount of solvent, the stated amount of emulsifier is added and the concentrate is diluted with water to the desired concentration.
(§2) Seeds of the test plants are sown in normal soil. After about 24 hours, the soil is sprayed with the preparation of active compound such that the particular amount of active compound desired is applied per unit area. The concentration of the spray liquor is chosen so that the particular amount of active compound desired is applied in 1000 liters of water per hectare.
(§3) After three weeks, the degree of damage to the plants is rated in % damage in comparison to the development of the untreated control.
(§4) 0%=no effect (like untreated control)

[2] = system: Matricaria; experiment: Pre-emergence test/greenhouse; format: in vivo; conditions: 504 h, after three weeks, read-out: degree of damage, Matricaria; for pest or weed control at 125 g/ha: 125 g of a.i./ha
Method: as §1, §2, §3, §4

[3] = system: Setaria; experiment: Pre-emergence test/greenhouse; format: in vivo; conditions: 60 g of a.i./ha, after three weeks
Method: as §1, §2, §3, §4

[4] = system: Echinochloa; experiment: Pre-emergence test/greenhouse; format: in vivo; conditions: 504 h, after three weeks, read-out: degree of damage, Echinochloa; for pest or weed control at 125 g/ha: 125 g of a.i./ha
Method: as §1, §2, §3, §4

[5] = system: Veronica; experiment: Pre-emergence test/greenhouse; format: in vivo; conditions: 504 h, after three weeks, read-out: degree of damage, Veronica; for pest or weed control at 125 g/ha: 125 g of a.i./ha
Method: as §1, §2, §3, §4

[6] = system: Amaranthus; experiment: Post-emergence test/greenhouse; format: in vivo; conditions: 504 h, after three weeks, read-out: degree of damage, Amaranthus; for pest or weed control at 60 g/ha: 60 g of a.i./ha; for pest or weed control at 125 g/ha: 125 g of a.i./ha
Method: as §1
(§5) Test plants of a height of 5 -15 cm are sprayed with the preparation of active compound such that the particular amounts of active compound desired are applied per unit area. The concentration of the spray liquor is chosen so that the particular amounts of active compound desired are applied in 1000 l of water/ha.
as §3, §4

[7] = system: Polygonum; experiment: Post-emergence test/greenhouse; format: in vivo; conditions: 60 g of a.i./ha, after three weeks
Method: as §1, §5, §3, §4

[8] = system: Sorghum; experiment: Post-emergence test/greenhouse; format: in vivo; conditions: 60 g of a.i./ha, after three weeks
Method: as §1, §5, §3, §4

[9] = system: Echinochloa; experiment: Post-emergence test/greenhouse; format: in vivo; conditions: 60 g of a.i./ha, after three weeks
Method: as §1, §5, §3, §4

[10] = system: Veronica; experiment: Post-emergence test/greenhouse; format: in vivo; conditions: 60 g of a.i./ha, after three weeks
Method: as §1, §5, §3, §4

[11] = system: weeds; experiment: Pre-emergence test, activity against weeds; format: in vivo
Method: as §1, §2, §3, §4

[12] = system: weeds; experiment: Post-emergence test, activity against weeds; format: in vivo
Method: as §1, §5, §3, §4

[13] = system: Solanum; experiment: Post-emergence test/greenhouse; format: in vivo; conditions: 504 h, after three weeks, read-out: degree of damage, Solanum; for pest or weed control at 125 g/ha: 125 g of a.i./ha
Method: as §1, §5, §3, §4

[14] = system: Abutilon; experiment: Post-emergence test/greenhouse; format: in vivo; conditions: 504 h, after three weeks, read-out: degree of damage, Abutilon; for pest or weed control at 60 g/ha: 60 g of a.i./ha; for pest or weed control at 125 g/ha: 125 g of a.i./ha
Method: as §1, §5, §3, §4

[15] = system: Stellaria; experiment: Post-emergence test/greenhouse; format: in vivo; conditions: 504 h, after three weeks, read-out: degree of damage, Stellaria; for pest or weed control at 60 g/ha: 60 g of a.i./ha; for pest or weed control at 125 g/ha: 125 g of a.i./ha
Method: as §1, §5, §3, §4

[16] = system: Setaria; experiment: Post-emergence test/greenhouse; format: in vivo; conditions: after three weeks
Method: as §1, §5, §3, §4

[17] = system: Chenopodium; experiment: Post-emergence test/greenhouse; format: in vivo; conditions: 504 h, after three weeks, read-out: degree of damage, Chenopodium; for pest or weed control at 125 g/ha: 125 g of a.i./ha
Method: as §1, §5, §3, §4

[18] = system: Chenopodium; experiment: Pre-emergence test/greenhouse; format: in vivo; conditions: 125 g of a.i./ha, after three weeks
Method: as §1, §2, §3, §4

[19] = system: Digitaria; experiment: Pre-emergence test/greenhouse; format: in vivo; conditions: 125 g of a.i./ha, after three weeks
Method: as §1, §2, §3, §4

Compound	pest or weed control at 60 g/ha [6] [%]	activity against weeds [11]	activity against weeds [12]	pest or weed control at 125 g/ha [1] [%]	pest or weed control at 125 g/ha [2] [%]	degree of damage, Chenopodium [18] [%]	pest or weed control at 125 g/ha [4] [%]	pest or weed control at 125 g/ha [5] [%]	pest or weed control at 125 g/ha [6] [%]	pest or weed control at 125 g/ha [13] [%]	pest or weed control at 125 g/ha [14] [%]	pest or weed control at 125 g/ha [15] [%]	degree of damage, Setaria ([16]; 125 g of a.i./ha) [%]	other results
CCOc1nn(C(=O)NS(=O)(=O)/N=c2\sccn2CCCF)c(=O)n1C [Example 1]	95	very strong activity	very strong activity	–	–	–	–	–	–	–	–	–	–	pest or weed control at 60 g/ha ([1]; 60 g of a.i./ha): 100%; pest or weed control at 60 g/ha ([2]; 60 g of a.i./ha): 100%; degree of damage, Setaria [3]: 100%; pest or weed control at 60 g/ha ([4]; 60 g of a.i./ha): 100%; pest or weed control at 60 g/ha ([5]; 60 g of a.i./ha): 100%; degree of damage, Polygonum [7]: 90%; degree of damage, Sorghum [8]: 95%; degree of damage, Echinochloa [9]: 95%; degree of damage, Veronica [10]: 90%; melting point: 178 °C
CCCc1nn(C(=O)NS(=O)(=O)/N=c2\sccn2CCC)c(=O)n1C [Example 2]	90	–	very strong activity	–	–	–	–	–	–	–	–	–	–	pest or weed control at 60 g/ha ([13]; 60 g of a.i./ha): 95%; pest or weed control at 60 g/ha [14]: 90%; pest or weed control at 60 g/ha [15]: 90%; degree of damage, Setaria ([16]; 60 g of a.i./ha): 90%
CCCn1ccs/c1=N\S(=O)(=O)NC(=O)n1nc(OC(C)C)n(C)c1=O [Example 9]	90	–	very strong activity	–	–	–	–	–	–	–	–	–	–	pest or weed control at 60 g/ha [14]: 90%; pest or weed control at 60 g/ha [15]: 90%; pest or weed control at 60 g/ha ([17]; 60 g of a.i./ha): 80%
CCCn1ccs/c1=N\S(=O)(=O)NC(=O)n1nc(OC)n(C2CC2)c1=O [Example 29]	–	very strong activity	–	100	95	100	95	100	–	–	–	–	–	–
CCCn1ccs/c1=N\S(=O)(=O)NC(=O)n1nc(OCC)n(C2CC2)c1=O [Example 30]	–	very strong activity	–	100	100	100	95	100	–	–	–	–	–	degree of damage, Digitaria [19]: 90%
CCCn1ccs/c1=N\S(=O)(=O)NC(=O)n1nc(OC(C)C)n(C2CC2)c1=O [Example 33]	–	very strong activity	very strong activity	100	100	100	80	95	100	95	100	95	80	pest or weed control at 125 g/ha [17]: 100%
CCCn1ccs/c1=N\S(=O)(=O)NC(=O)n1nc(OC2CC2)n(C2CC2)c1=O [Example 34]	–	–	very strong activity	–	–	–	–	–	100	100	95	100	70	pest or weed control at 125 g/ha [17]: 100%
CCCn1ccs/c1=N\S(=O)(=O)NC(=O)n1nc(C2CC2)n(C)c1=O [Example 41]	–	–	very strong activity	–	–	–	–	–	90	90	90	95	70	–
